Patent publication US11028090B2 (Dong Wha Pharm. Co., Ltd., priority 2017, dated 2021)
Where two headings read alike, the source gives them in different places.

Key:
[1] = tested on: acute myelogenous leukemia cells (MV-4-11 cells); assay: Cytotoxicity to acute myelogenous leukemia cells (MV-4-11 cells), CCK-8; settings: Homo sapiens, MV4-11, 72 h
Description: The following experiment was performed to evaluate the cytotoxicity of [1,2,4]triazolo[4,3-a]quinoxaline derivative according to the present invention to acute myelogenous leukemia cells (MV-4-11 cells).
Acute myelogenous leukemia cells (MV-4-11 cells) were distributed in a 96 well plate at the density of 5×10^3 cells/well. The plated cells were treated with the compounds of the present invention dissolved in DMSO at the different concentrations ranging from 0.01 μM to 10 μM. 72 hours later, the activities of the compounds were determined using CCK-8 reagent.

[2] = biological target: BRD4 (BD1+BD2) bromodomain (Homo sapiens (Human), UniProt O60885); assay: BRD4 binding inhibition (AlphaScreen, GST-BRD4 vs tetraacetylated histone H4 peptide)
Procedure, shortened: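 GST-BRD4 (BD1+BD2) and biotinylated tetraacetyl-histone H4 peptide, each at 100 nM in HEPES pH 7.4 buffer with BSA and DTT, were combined with compound. Glutathione acceptor and streptavidin donor beads were added, then incubated 30 min at room temperature in the dark. Read-out was AlphaScreen signal.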

[3] = read-out: MV-4-11 Cytotoxicity IC50
[4] = read-out: IC50, cytotoxicity against acute myelogenous leukemia cells
[5] = GST-BRD4 (BD1+BD2) / biotinylated acetyl-histone H4 (Lys5,8,12,16) peptide, read-out: IC50, BRD4 binding inhibition
[6] = GST-BRD4 (BD1+BD2) vs biotinylated acetyl-histone H4 peptide, AlphaScreen, read-out: BRD4 IC50

## CNc1ccc2c(c1)nc(NCCCCNC(=O)CC(C)C)c1nnc(C)n12 [Example 252, 3-methyl-N-[4-(1-methyl-7-methylamino-[1,2,4]triazolo[4,3-a]quinoxaline-4-ylamino)-butyl]-butyramide]
[1]; [3]
  IC50: 254 nM

## Cc1nnc2c(NCCCCNC(=O)CC(C)C)nc3cc(NC(=O)NC(C)C)ccc3n12 [Example 255, N-{4-[7-(3-isopropyl-ureido)-1-methyl-[1,2,4]triazolo[4,3-a]quinoxaline-4-ylamino]-butyl}-3-methyl-butyramide]
[1]; [4]
  IC50: ≤ 200 nM
[1]; [3]
  IC50: 93 nM

## Cc1nnc2c(NCCCCNC(=O)CC(C)C)nc3cc(NC(=S)NC(C)C)ccc3n12 [Example 256, N-{4-[7-(3-isopropyl-thioureido)-1-methyl-[1,2,4]triazolo[4,3-a]quinoxaline-4-ylamino]-butyl}-3-methyl-butyramide]
[1]; [4]
  IC50: ≤ 200 nM
[1]; [3]
  IC50: 84 nM

## Cc1nnc2c(NCCCCNC(=O)CC(C)C)nc3cc(NS(=O)(=O)C(C)C)ccc3n12 [Example 259, 3-methyl-N-{4-[1-methyl-7-(propane-2-sulfonylamino)-[1,2,4]triazolo[4,3-a]quinoxaline-4-ylamino]-butyl}-butyramide]
[1]; [3]
  IC50: 339 nM

## Cc1nnc2c(NCCCCNC(=O)C(C)(C)C)nc3ccc(OC(F)(F)F)cc3n12 [Example 265, 2,2-dimethyl-N-[4-(1-methyl-8-trifluoromethoxy-[1,2,4]triazolo[4,3-a]quinoxaline-4-ylamino)-butyl]-propionamide]
[1]; [3]
  IC50: 680 nM

## Cc1nnc2c(NCCCCNC(=O)C(C)(C)C)nc3cc(OC(F)(F)F)ccc3n12 [Example 271, 2,2-dimethyl-N-[4-(1-methyl-7-trifluoromethoxy-[1,2,4]triazolo[4,3-a]quinoxaline-4-ylamino)-butyl]-propionamide]
[1]; [3]
  IC50: 880 nM

## COc1ccc2c(c1)nc(NCCCCNC(=O)C1CC1)c1nnc(C)n12 [Example 282, cyclopropane; carboxylic acid-[4-(7-methoxy-1-methyl-[1,2,4]triazolo[4,3-a]quinoxaline-4-ylamino)-butyl]-amide]
[1]; [3]
  IC50: 534 nM

## Cc1nnc2c(NCCCCNC(=O)CC(C)C)nc3cc(OC(=O)N4CCOCC4)ccc3n12 [Example 351]
[1]; [3]
  IC50: 290 nM

## CSc1ccc2c(c1)nc(NCCCCNC(=O)CC(C)C)c1nnc(C)n12 [Example 356, 3-methyl-N-[4-(1-methyl-7-methylsulfanyl-[1,2,4]triazolo[4,3-a]quinoxaline-4-ylamino)-butyl]-butyramide]
[1]; [4]
  IC50: ≤ 200 nM
[1]; [3]
  IC50: 143 nM

## Cc1noc(C)c1-c1ccc2nc(NCCCCNC(=O)OC(C)(C)C)c3nnc(C)n3c2c1 [Example 578, {4-[8-(3,5-dimethyl-isoxazol-4-yl)-1-methyl-[1,2,4]triazolo[4,3-a]quinoxaline-4-ylamino]-butyl}-carbamic acid-tert-butylester]
[2]; [5]
  IC50: ≤ 50 nM
[2]; [6]
  IC50: 30 nM

## Cc1noc(C)c1-c1ccc2nc(NCCCCN)c3nnc(C)n3c2c1 [Example 579, N^1-[8-(3,5-dimethyl-isoxazol-4-yl)-1-methyl-[1,2,4]triazolo[4,3-a]quinoxaline-4-yl]-butane-1,4-diamine ditrifluoroacetic acid]
[2]; [5]
  IC50: ≤ 10 nM
[2]; [6]
  IC50: 5 nM

## Cc1noc(C)c1-c1ccc2nc(NCCCCNC(=O)[C@H](O)C(C)C)c3nnc(C)n3c2c1 [Example 581, N-{4-[8-(3,5-dimethyl-isoxazol-4-yl)-1-methyl-[1,2,4]triazolo[4,3-a]quinoxaline-4-ylamino]-butyl}-2-(R)-hydroxy-3-methyl-butyramide]
[2]; [5]
  IC50: ≤ 50 nM
[2]; [6]
  IC50: 24 nM

## Cc1noc(C)c1-c1ccc2nc(NCCCCNC(=O)[C@@H](O)C(C)C)c3nnc(C)n3c2c1 [Example 582, N-{4-[8-(3,5-dimethyl-isoxazol-4-yl)-1-methyl-[1,2,4]triazolo[4,3-a]quinoxaline-4-ylamino]-butyl}-2-(S)-hydroxy-3-methyl-butyramide]
[2]; [5]
  IC50: ≤ 10 nM
[2]; [6]
  IC50: 10 nM

## Cc1noc(C)c1-c1ccc2c(c1)nc(NCCCCNC(=O)OC(C)(C)C)c1nnc(C)n12 [Example 583, {4-[7-(3,5-dimethyl-isoxazol-4-yl)-1-methyl-[1,2,4]triazolo[4,3-a]quinoxaline-4-ylamino]-butyl}-carbamic acid-tert-butylester]
[2]; [5]
  IC50: ≤ 10 nM
[2]; [6]
  IC50: 5 nM

## Cc1noc(C)c1-c1ccc2c(c1)nc(NCCCCNC(=O)[C@H](O)C(C)C)c1nnc(C)n12 [Example 586, N-{4-[7-(3,5-dimethyl-isoxazol-4-yl)-1-methyl-[1,2,4]triazolo[4,3-a]quinoxaline-4-ylamino]-butyl}-2-(R)-hydroxy-3-methyl-butyramide]
[2]; [5]
  IC50: ≤ 50 nM
[2]; [6]
  IC50: 24 nM

## Cc1noc(C)c1-c1ccc2c(c1)nc(NCCCCNC(=O)[C@@H](O)C(C)C)c1nnc(C)n12 [Example 587, N-{4-[7-(3,5-dimethyl-isoxazol-4-yl)-1-methyl-[1,2,4]triazolo[4,3-a]quinoxaline-4-ylamino]-butyl}-2-(S)-hydroxy-3-methyl-butyramide]
[2]; [5]
  IC50: ≤ 10 nM
[2]; [6]
  IC50: 7 nM

## COc1ccc2c(c1)nc(NCCCCNC(=O)OC(C)C)c1nnc(C(F)(F)F)n12 [Example 589, [4-(7-methoxy-1-trifluoromethyl-[1,2,4]triazolo[4,3-a]quinoxaline-4-ylamino)-butyl]-carbamic acid isopropylester]
[2]; [5]
  IC50: ≤ 50 nM
[2]; [6]
  IC50: 46 nM

## COc1cc2nc(NCCCCNC(=O)CC(C)C)c3nnc(C(F)(F)F)n3c2cc1OC [Example 593, N-[4-(7,8-dimethoxy-1-trifluoromethyl-[1,2,4]triazolo[4,3-a]quinoxaline-4-ylamino)-butyl]-3-methyl-butyramide]
[2]; [6]
  IC50: 92 nM

## COc1cc2nc(NCCCCNC(=O)CC(C)C)c3nnc(C(C)C)n3c2cc1OC [Example 603, N-[4-(1-isopropyl-7,8-dimethoxy-[1,2,4]triazolo[4,3-a]quinoxaline-4-ylamino)-butyl]-3-methyl-butyramide]
[2]; [5]
  IC50: ≤ 50 nM
[2]; [6]
  IC50: 34 nM

## COc1ccc2c(c1)nc(NCCCCNC(=O)CC(C)C)c1nnc(C(C)C)n12 [Example 627]
[2]; [5]
  IC50: ≤ 50 nM
[2]; [6]
  IC50: 23 nM

## COc1ccc2c(c1)nc(NCCCCNC(=O)OC(C)C)c1nnc(C(C)C)n12 [Example 628, [4-(1-isopropyl-7-methoxy-[1,2,4]triazolo[4,3-a]quinoxaline-4-ylamino)-butyl]-carbamic acid isopropylester]
[2]; [5]
  IC50: ≤ 50 nM
[2]; [6]
  IC50: 48 nM

## COc1ccc2c(c1)nc(NCCCCNC(=O)OCC(C)C)c1nnc(C(C)C)n12 [Example 629, [4-(1-isopropyl-7-methoxy-[1,2,4]triazolo[4,3-a]quinoxaline-4-ylamino)-butyl]-carbamic acid isobutylester]
[2]; [5]
  IC50: ≤ 50 nM
[2]; [6]
  IC50: 16 nM

## Cc1nnc2c(NCCCCOC(=O)C(C)(C)C)nc3ccccc3n12 [Example 631, 2,2-dimethyl-propionic acid-4-(1-methyl-[1,2,4]triazolo[4,3-a]quinoxaline-4-ylamino)-butylester]
[2]; [5]
  IC50: ≤ 50 nM
[2]; [6]
  IC50: 47 nM

## Cc1nnc2c(NCCCCOC(=O)C(C)C)nc3ccccc3n12 [Example 632]
[2]; [5]
  IC50: ≤ 50 nM
[2]; [6]
  IC50: 44 nM

## Cc1nnc2c(NCCCCOC(=O)c3ccccc3)nc3ccccc3n12 [Example 634, benzoic acid-4-(1-methyl-[1,2,4]triazolo[4,3-a]quinoxaline-4-ylamino)-butylester]
[2]; [6]
  IC50: 91 nM

## COc1cc2nc(NCCCCCNC(=O)OC(C)(C)C)c3nnc(C)n3c2cc1OC [Example 642, [5-(7,8-dimethoxy-1-methyl-[1,2,4]triazolo[4,3-a]quinoxaline-4-ylamino)-pentyl]-carbamic acid-tert-butylester]
[2]; [6]
  IC50: 56 nM

## COc1cc2nc(NCCCCC(=O)NC(C)(C)C)c3nnc(C)n3c2cc1OC [Example 646]
[2]; [6]
  IC50: 56 nM

## COc1cc2nc(NCCCCC(=O)NC(C)C)c3nnc(C)n3c2cc1OC [Example 647, 5-(7,8-dimethoxy-1-methyl-[1,2,4]triazolo[4,3-a]quinoxaline-4-ylamino)-pentanoic acid-isopropylamide]
[2]; [5]
  IC50: ≤ 50 nM
[2]; [6]
  IC50: 29 nM

## COc1ccc2c(c1)nc(NCCCCC(=O)NC(C)(C)C)c1nnc(C)n12 [Example 653, 5-(7-methoxy-1-methyl-[1,2,4]triazolo[4,3-a]quinoxaline-4-ylamino)-pentanoic acid-tert-butylamide]
[2]; [5]
  IC50: ≤ 50 nM
[2]; [6]
  IC50: 16 nM

## COc1ccc2c(c1)nc(NCCCCC(=O)NCc1ccccc1)c1nnc(C)n12 [Example 658]
[2]; [5]
  IC50: ≤ 50 nM
[2]; [6]
  IC50: 26 nM

## Cc1nnc2c(NCCCCC(=O)NC(C)C)nc3ccccc3n12 [Example 659, 5-(1-methyl-[1,2,4]triazolo[4,3-a]quinoxaline-4-ylamino)-pentanoic acid isopropylamide]
[2]; [6]
  IC50: 75 nM

## Cc1nnc2c(NCCCCCC(=O)NC(C)C)nc3ccccc3n12 [Example 661, 6-(1-methyl-[1,2,4]triazolo[4,3-a]quinoxaline-4-ylamino)-hexanoic acid isopropylamide]
[2]; [6]
  IC50: 78 nM

## Cc1nnc2c(NCCCCCC(=O)NCC(C)C)nc3ccccc3n12 [Example 662, 6-(1-methyl-[1,2,4]triazolo[4,3-a]quinoxaline-4-ylamino)-hexanoic acid isobutylamide]
[2]; [5]
  IC50: ≤ 50 nM
[2]; [6]
  IC50: 39 nM

## N-(4-{7-[4-(N-hydroxycarbamimidoyl)-benzoyl]-1-methyl-[1,2,4]triazolo[4,3-a]quinoxaline-4-ylamino}-butyl)-3-methyl-butyramide [Example 347]
[2]; [5]
  IC50: ≤ 50 nM
[2]; [6]
  IC50: 18 nM
